Measurements taken from patent publication US20160159814A1, “GLYCINE TRANSPORTER INHIBITOR” (TAISHO PHARMACEUTICAL CO., LTD., priority 2013, published 2016).
Where two headings read alike, the source gives them in different places.

Target: T1, human type 1 glycine transporter (GlyT1) (Homo sapiens, UniProt P48067)
T1 construct: T98G cells (glioma cells) expressing human type 1 glycine transporter (GlyT1) were used; endogenous in cells; host or cells: T98G cells (human glioma cells)
T1 sequence (P48067 1-706): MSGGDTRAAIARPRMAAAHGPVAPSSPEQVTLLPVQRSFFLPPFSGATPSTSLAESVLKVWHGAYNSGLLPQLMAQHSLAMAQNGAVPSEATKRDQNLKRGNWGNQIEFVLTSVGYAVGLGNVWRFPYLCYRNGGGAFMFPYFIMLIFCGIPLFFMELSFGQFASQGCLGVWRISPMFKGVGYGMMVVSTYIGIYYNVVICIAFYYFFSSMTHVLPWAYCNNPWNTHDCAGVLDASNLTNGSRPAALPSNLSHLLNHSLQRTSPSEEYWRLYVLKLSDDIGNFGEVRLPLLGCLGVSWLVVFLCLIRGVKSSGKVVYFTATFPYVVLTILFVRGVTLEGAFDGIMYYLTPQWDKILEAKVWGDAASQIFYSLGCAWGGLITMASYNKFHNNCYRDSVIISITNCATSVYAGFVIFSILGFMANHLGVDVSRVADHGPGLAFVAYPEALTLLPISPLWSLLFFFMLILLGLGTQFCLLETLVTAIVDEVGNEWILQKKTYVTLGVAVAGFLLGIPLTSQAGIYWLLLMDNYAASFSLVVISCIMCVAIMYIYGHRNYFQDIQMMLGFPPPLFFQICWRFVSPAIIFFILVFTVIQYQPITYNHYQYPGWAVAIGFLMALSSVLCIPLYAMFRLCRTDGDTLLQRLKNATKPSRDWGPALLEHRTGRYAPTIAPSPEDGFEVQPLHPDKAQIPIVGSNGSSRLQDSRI
Test: Glycine uptake inhibition experiment ([3H] glycine uptake in T98G cells expressing GlyT1)
Format: cell-based
In short: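 T98G glioma cells expressing human GlyT1 were pretreated 10 min with compound in HEPES buffer pH 7.4 (0.2% BSA), then incubated with compound plus 250 nM final [3H]glycine for 15 min at room temperature. Intracellular radioactivity was counted after NaOH lysis; 10 μM ALX5407 defined non-specific uptake. IC50 came from 10^−9–10^−5 M curves.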

| SMILES | IC50 (glycine uptake inhibition) [nM] | IC50 [nM] |
| --- | --- | --- |
| C[C@H](O)c1c(Cl)ccc2c1C(F)(F)C(=O)N2Cc1cncc(Cl)c1 [Compound 90, 5-chloro-1-[(5-chloropyridin-3-yl)methyl]-3,3-difluoro-4-[(1S)-1-hydroxyethyl]-1,3-dihydro-2H-indol-2-one] | 46 |  |
| C[C@H](O)c1cccc2c1C(F)(F)C(=O)N2Cc1ccc(C(F)(F)F)c(C#N)n1 [Compound 216, 6-({3,3-difluoro-4-[(1S)-1-hydroxyethyl]-2-oxo-2,3-dihydro-1H-indol-1-yl}methyl)-3-(trifluoromethyl) pyridine-2-carbonitrile] |  | 9.4 |
| O=C1N(Cc2ccccc2)c2cccc(C(O)C(F)F)c2C1(F)F (single isomer, unassigned) [Compound 157, 1-benzyl-4-(2,2-difluoro-1-hydroxyethyl)-3,3-difluoro-1,3-dihydro-2H-indol-2-one] | 21 |  |
| CC(O)c1c(F)ccc2c1C(F)(F)C(=O)N2Cc1ccnc(C#N)c1 (single isomer, unassigned) [Compound 182, 4-{[3,3,5-trifluoro-4-(1-hydroxyethyl)-2-oxo-2,3-dihydro-1H-indol-1-yl]methyl}pyridine-2-carbonitrile] |  | 1700 |
| O=C1N(Cc2ccc(Cl)cn2)c2cccc(C(O)C(F)F)c2C1(F)F (single isomer, unassigned) [Compound 162, 1-[(5-chloropyridin-2-yl)methyl]-4-(2,2-difluoro-1-hydroxyethyl)-3,3-difluoro-1,3-dihydro-2H-indol-2-one] |  | 220 |
| O=C1N(Cc2cccc(Cl)n2)c2cccc(CO)c2C1(F)F [Compound 16, 1-[(6-chloropyridin-2-yl)methyl]-3,3-difluoro-4-(hydroxymethyl)-1,3-dihydro-2H-indol-2-one] | 140 |  |
| COc1nc(C(F)(F)F)ccc1CN1C(=O)C(F)(F)c2c([C@H](C)O)cccc21 [Compound 243, 3,3-difluoro-4-[(1S)-1-hydroxyethyl]-1-({2-methoxy-6-(trifluoromethyl)pyridin-3-yl]methyl}-1,3-dihydro-2H-indol-2-one] |  | 57 |
| O=C1N(Cc2cnc3ccccc3c2)c2cccc(C(O)C(F)F)c2C1(F)F (single isomer, unassigned) [Compound 143, 4-(2,2-difluoro-1-hydroxyethyl)-3,3-difluoro-1-(quinolin-3-ylmethyl)-1,3-dihydro-2H-indol-2-one] | 48 |  |
| O=C1N(Cc2ccnc(C3CC3)c2)c2cccc(C(O)C(F)F)c2C1(F)F (single isomer, unassigned) [Compound 180, 1-[(2-cyclopropylpyridin-4-yl)methyl]-4-(2,2-difluoro-1-hydroxyethyl)-3,3-difluoro-1,3-dihydro-2H-indol-2-one] |  | 53 |
| O=C1N(Cc2cccc(Cl)n2)c2cccc(C3(O)COC3)c2C1(F)F [Compound 25, 1-[(6-chloropyridin-2-yl)methyl]-3,3-difluoro-4-(3-hydroxyoxetan-3-yl)-1,3-dihydro-2H-indol-2-one] | 7600 |  |
| O=C1N(Cc2cncc(Cl)c2)c2c(F)ccc(C(O)C(F)F)c2C1(F)F (single isomer, unassigned) [Compound 254, 1-[(5-chloropyridin-3-yl)methyl]-4-(2,2-difluoro-1-hydroxyethyl)-3,3,7-trifluoro-1,3-dihydro-2H-indol-2-one] |  | 6800 |
| N#Cc1cc(CN2C(=O)C(F)(F)c3c(C(O)C(F)F)cccc32)c(Cl)cn1 (single isomer, unassigned) [Compound 220] |  | 170 |
| C[C@H](O)c1cccc2c1C(F)(F)C(=O)N2Cc1nc2cc(F)ccc2c(=O)n1C [Compound 132, 2-({3,3-difluoro-4-[(1S)-1-hydroxyethyl]-2-oxo-2,3-dihydro-1H-indol-1-yl}methyl)-7-fluoro-3-methylquinazolin-4(3H)-one] | 18 |  |
| Cn1c(=O)c(CN2C(=O)C(F)(F)c3c(C(O)C(F)F)cccc32)nc2ccccc21 (single isomer, unassigned) [Compound 167, 3-{[4-(2,2-difluoro-1-hydroxyethyl)-3,3-difluoro-2-oxo-2,3-dihydro-1H-indol-1-yl]methyl)-1-methylquinoxalin-2(1H)-one] |  | 62 |

Further lines, results first:

| IC50 (glycine uptake inhibition) [nM] | IC50 [nM] | SMILES |
| --- | --- | --- |
|  | 240 | C[C@H](O)c1cccc2c1C(F)(F)C(=O)N2Cc1ccc(OC(F)F)nc1 [Compound 215, 1-{[6 (difluoromethoxy)pyridin-3-yl]methyl}-3,3-difluoro-4-[(1S)-1-hydroxyethyl]-1,3-dihydro-2H-indol-2-one] |
| 220 |  | C[C@H](O)c1cccc2c1C(F)(F)C(=O)N2Cc1cc(C(F)F)ccn1 [Compound 122, 1-{[4-(difluoromethyl)pyridin-2-yl]methyl}-3,3-difluoro-4-{(1S)-1-hydroxyethyl]-1,3-dihydro-2H-indol-2-one] |
| 400 |  | C[C@H](O)c1cccc2c1C(F)(F)C(=O)N2Cc1ccc(C(F)F)nc1 [Compound 130, 1-{[6-(difluoromethyl)pyridin-3-yl]methyl}-3,3-difluoro-4-[(1S)-1-hydroxyethyl]-1,3-dihydro-2H-indol-2-one] |
|  | 23 | C[C@H](O)c1cccc2c1C(F)(F)C(=O)N2Cc1ccnc(C2CC2)c1 [Compound 175, 1-[(2-cyclopropylpyridin-4-yl)methyl]-3,3-difluoro-4-[(1S)-1-hydroxyethyl]-1,3-dihydro-2H-indol-2-one] |
| 71 |  | N#Cc1cc(CN2C(=O)C(F)(F)c3c(C(O)C(F)(F)F)cccc32)ccn1 (single isomer, unassigned) [Compound 21, 4-{[3,3-difluoro-2-oxo-4-(2,2,2-trifluoro-1-hydroxyethyl)-2,3-dihydro-1H-indol-1-yl]methyl}pyridine-2-carbonitrile] |
|  | 580 | COc1cccnc1CN1C(=O)C(F)(F)c2c([C@H](C)O)cccc21 [Compound 247, 3,3-difluoro-4-[(1S)-1-hydroxyethyl]-1-[(3-methoxypyridin-2-yl)methyl]-1,3-dihydro-2H-indol-2-one] |
|  | 66 | C[C@H](O)c1cccc2c1C(F)(F)C(=O)N2Cc1cnc(Cl)cc1Cl [Compound 223, 1-[(4,6-dichloropyridin-3-yl)methyl]-3,3-difluoro-4-[(1S)-1-hydroxyethyl]-1,3-dihydro-2H-indol-2-one] |
| 12 |  | C[C@H](O)c1cccc2c1C(F)(F)C(=O)N2Cc1cncc(Cl)n1 [Compound 72, 1-[(6-chloropyrazin-2-yl)methyl]-3,3-difluoro-4-[(1S)-1-hydroxyethyl]-1,3-dihydro-2H-indol-2-one] |
|  | 8.6 | C[C@H](O)c1cccc2c1C(F)(F)C(=O)N2Cc1cnc(Cl)c(Cl)c1 [Compound 200, 1-[(5,6-dichloropyridin-3-yl)methyl]-3,3-difluoro-4-[(1S)-1-hydroxyethyl]-1,3-dihydro-2H-indol-2-one] |
|  | 40 | C[C@H](O)c1cccc2c1C(F)(F)C(=O)N2Cc1ncc(F)cc1Br [Compound 226, 1-[(3-bromo-5-fluoropyridin-2-yl)methyl]-3,3-difluoro-4-[(1S)-1-hydroxyethyl]-1,3-dihydro-2H-indol-2-one] |
| 18 |  | CC(O)c1cccc2c1C(F)(F)C(=O)N2Cc1ccnc(Cl)c1 (single isomer, unassigned) [Compound 33, 1-[(2-chloropyridin-4-yl)methyl]-3,3-difluoro-4-(1-hydroxyethyl)-1,3-dihydro-2H-indol-2-one] |
|  | 350 | O=C1N(Cc2ccc(Cl)nc2)c2cccc(C(O)C(F)F)c2C1(F)F (single isomer, unassigned) [Compound 160, 1-[(6-chloropyridin-3-yl)methyl]-4-(2,2-difluoro-1-hydroxyethyl)-3,3-difluoro-1,3-dihydro-2H-indol-2-one] |
| 2900 |  | N#Cc1cc(CN2C(=O)C(F)(F)c3c(C(O)C(F)(F)F)cccc32)ccn1 (single isomer, unassigned) [Compound 20, 4-{[3,3-difluoro-2-oxo-4-(2,2,2-trifluoro-1-hydroxyethyl)-2,3-dihydro-1H-indol-1-yl]methyl}pyridine-2-carbonitrile] |
|  | 740 | C[C@H](O)c1cccc2c1C(F)(F)C(=O)N2Cc1ccc(Cl)nc1Cl [Compound 224, 1-[(2,6-dichloropyridin-3-yl)methyl]-3,3-difluoro-4-[(1S)-1-hydroxyethyl]-1,3-dihydro-2H-indol-2-one] |
| 39 |  | C[C@H](O)c1cccc2c1C(F)(F)C(=O)N2Cc1cnc2ccccc2c1 [Compound 74, 3,3-difluoro-4-[(1S)-1-hydroxyethyl)-1-(quinolin-3-ylmethyl)-1,3-dihydro-2H-indol-2-one] |
|  | 140 | C[C@H](O)c1cccc2c1C(F)(F)C(=O)N2Cc1cnc(Cl)nc1 [Compound 214, 1-[(2-chloropyrimidin-5-yl)methyl]-3,3-difluoro-4-[(1S)-1-hydroxyethyl]-1,3-dihydro-2H-indol-2-one] |
